From EP2698384A1, “Detection of synthetic cannabinoids” (priority 2012, dated 2014)
Structures can show the parent of a compound that is named as a salt. Where two headings read alike, the source gives them in different places.

Assays:
Format in all cases: binding, sheep
Antibody to Immunogen V = system: Antibody to Immunogen V
Experimental: (§1) The wells of an enhanced binding 96 well polystyrene microtiter plate were coated with IgG fraction of antiserum raised to Immunogen VI, diluted in 10mM Tris, pH8.5 (125µl/well). The appropriate antibody coating dilution was determined using standard ELISA checkerboard techniques. The plate was incubated overnight at 4°C, washed 4 times over 10 minutes with Tris buffered saline containing Tween 20 (TBST) and tapped dry. Standard solutions of RCS-4 were prepared in TBST at 0, 0.3125, 0.625, 1.25, 2.5, 5, 10 and 20ng/ml, and 50µl of each was added to the appropriate wells (see figure 1). 75µl of conjugate (appropriate hapten-HRP) diluted in Tris buffer (pH 7.2) containing EDTA, D-mannitol, sucrose, thimerosal and BSA, was added to each of the wells. The appropriate dilution of conjugate was also determined using standard ELISA checkerboard techniques. The plate was incubated at 25°C for 1 hour. Excess unbound conjugate was removed by washing 6 times over a 10 minute period with TBST. 125µl oftetramethylbenzidine (TMB) substrate solution was added to each well of the plate that was then incubated for 20 minutes in the dark at room temperature. The reaction was terminated by addition of 125µl 0.2M H2SO4 to each well. The absorbance was then measured at 450nm using a microtiter plate reader. The data are inputted to a computer program called 'KC Junior'. It is a 4 parameter fit curve and allow the calculatation of concentrations between the standard runs. This program is used to calculate the IC50s by dividing the 0ng/ml OD value by 2 and obtaining the concentration value from the curve for this OD.
In a similar manner to that described above, the wells of a 96-well microtiter plate were coated with the IgG fraction of the antiserum raised to Immunogens IV, V, VII or VIII. Standard solutions (RCS-8 for Immunogen V) were prepared in TBST at 0, 1.25, 2.5, 5, 10, 20, 40 and 80ng/ml and conjugate was employed as detection reagent.
(§2) The data set our in Tables 3 and 4 are generated using antibodies raised against the indicated Immunogens in a competitive binding assay with the indicated tracers, using the indicated standards: Table 2
(§3) In order to determine the specificity of the competitive ELISAs, standard solutions of a range of structurally similar synthetic cannabinoids and their metabolites were prepared in TBST. Using the calibration curves generated and employing a single level of cross reactants, these were used to determine the cross-reactivity of each immunoassay with these substances. Table 4: Cross reactivity of the competitive ELISAs for synthetic cannabinoids and their metabolites

Antibody to Immunogen VI = system: Antibody to Immunogen VI
Experimental: as §1, §2, §3

[1] = system: Antibody to Immunogen III
Experimental: as §1
In a similar manner to that described above, the wells of a 96-well microtiter plate were coated with the IgG fraction of the antiserum raised to Immunogens I, II or III. Standard solutions (JWH-250 for Immunogen III) were applied at 0, 0.625, 1.25, 2.5, 5, 10, 20 and 40ng/ml and conjugate was employed as detection reagent.
as §2, §3

[2] = Cross-reactants at 100 ng/ml, 1000ng/ml, single level of cross reactants

Compound	%B/B0 (Antibody to Immunogen V; [2])	%B/B0 (Antibody to Immunogen VI; [2])	%B/B0 [1, 2]	further results
CCCCCn1cc(C(=O)Cc2ccc(Cl)cc2)c2ccccc21 [JWH-206 (JWH-203 4-chloro isomer)]	51.00%	78.35%	26.33%	
CCCCCn1cc(C(=O)c2c(CC)ccc3ccccc23)c2ccccc21 [JWH-210 2-ethylnaphthyl isomer]	85.10%	89.90%	85.02%	
CCCCCn1cc(C(=O)c2ccc(CC)c3ccccc23)c2cc(O)ccc21 [JWH-210 5-hydroxyindole metabolite]	79.94%	86.92%	87.01%	
CCCCCn1cc(C(=O)c2cccc3ccc(CC)cc23)c2ccccc21 [JWH-210 7-ethylnaphthyl isomer or JWH-234]	85.10%	87.07%	73.32%	
CCc1ccc(C(=O)c2cn(CCCCCC(=O)O)c3ccccc23)c2ccccc12 [JWH-210 N-(5-carboxypentyl) metabo lite]	70.77%	63.50%	94.24%	
CCCCCn1cc(C(=O)c2ccc(CC)c3ccccc23)c2ccccc21 [JWH-210]	70.20%	72.07%	69.64%	
CCCCCn1cc(C(=O)Cc2ccccc2OC)c2ccccc21 [JWH-250, 2-(2-methoxyphenyl)-1-(1-pentyl-1H-indol-3-yl)ethanone]	8.74%	82.17%	11.91%	IC50 ([1]; standard JWH-250, standard concentration which produces 50% B/B0): 3.850 ng/mL; %B/B0 ([1]; standard curve, JWH-250 1 ng/ml (first row printed 1)): 84%; %B/B0 ([1]; standard curve, JWH-250 1 ng/ml (second row printed 1)): 70%; %B/B0 ([1]; standard curve, JWH-250 3 ng/ml): 59%; %B/B0 ([1]; standard curve, JWH-250 5 ng/ml): 43%; %B/B0 ([1]; standard curve, JWH-250 10 ng/ml): 38%; %B/B0 ([1]; standard curve, JWH-250 20 ng/ml): 29%; %B/B0 ([1]; standard curve, JWH-250 40 ng/ml): 23%
CCCCCn1cc(C(=O)Cc2ccccc2C)c2ccccc21 [JWH-251]	13.61%	79.72%	17.28%	
CCCCCn1cc(C(=O)Cc2cccc(OC)c2)c2ccccc21 [JWH-302]	32.66%	71.16%	19.97%	
CCCCCn1cc(C(=O)c2cccc3c(Cl)cccc23)c2ccccc21 [JWH-398 5-chloronaphthyl isomer]	70.34%	76.13%	64.92%	
O=C(c1ccc(Cl)c2ccccc12)c1cn(CCCCCO)c2ccccc12 [JWH-398 N-(5-hydroxypentyl) metabo lite]	55.87%	69.24%	76.01%	
CCCCCn1cc(C(=O)c2ccc(Cl)c3ccccc23)c2ccccc21 [JWH-398]	65.76%	72.30%	71.37%	
O=C(c1cccc2ccccc12)c1c[nH]c2ccccc12 [N-desalkyl JWH-018: LK1012 10CD194]	81.80%	87.49%	99.73%	
CCCCCn1cc(C(=O)c2ccccc2OC)c2ccccc21 [RCS-4 2-methoxy isomer]	68.38%	81.06%	64.43%	
CCCCCn1cc(C(=O)c2cccc(OC)c2)c2ccccc21 [RCS-4 3-methoxy isomer]	66.18%	41.84%	58.00%	
COc1ccc(C(=O)c2cn(CCCC(C)O)c3ccccc23)cc1 (stereo not drawn) [RCS-4 N-(4-hydroxypentyl) metabolite]	71.93%	5.69%	66.40%	
COc1ccc(C(=O)c2cn(CCCCCC(=O)O)c3ccccc23)cc1 [RCS-4 N-(5-carboxypentyl) metabolite]	60.79%	4.25%	91.87%	
COc1ccc(C(=O)c2cn(CCCCCO)c3ccccc23)cc1 [RCS-4 N-(5-hydroxypentyl) metabolite]	63.69%	3.76%	72.34%	
CCCCCn1cc(C(=O)c2ccc(OC)cc2)c2ccccc21 [RCS-4]	64.84%	4.90%	57.10%	IC50 (Antibody to Immunogen VI; standard RCS-4, standard concentration which produces 50% B/B0): 1.020 ng/mL; %B/B0 (Antibody to Immunogen VI; standard curve, RCS-4 0.3125 ng/ml): 74%; %B/B0 (Antibody to Immunogen VI; standard curve, RCS-4 0.625 ng/ml): 60%; %B/B0 (Antibody to Immunogen VI; standard curve, RCS-4 1.25 ng/ml): 46%; %B/B0 (Antibody to Immunogen VI; standard curve, RCS-4 2.5 ng/ml): 34%; %B/B0 (Antibody to Immunogen VI; standard curve, RCS-4 5 ng/ml): 25%; %B/B0 (Antibody to Immunogen VI; standard curve, RCS-4 10 ng/ml): 18%; %B/B0 (Antibody to Immunogen VI; standard curve, RCS-4 20 ng/ml): 13%
COc1cccc(CC(=O)c2cn(CCC3CCCCC3)c3ccccc23)c1 [RCS-8 3-methoxy isomer]	38.01%	79.95%	69.47%	
COc1ccc(CC(=O)c2cn(CCC3CCCCC3)c3ccccc23)cc1 [RCS-8 4-methoxy isomer]	81.97%	89.48%	76.06%	
COc1ccccc1CC(=O)c1cn(CCC2CCCCC2)c2ccccc12 [RCS-8 (SR-18)]	8.34%	85.46%	64.72%	IC50 (Antibody to Immunogen V; standard RCS-8, standard concentration which produces 50% B/B0): 7.23 ng/mL; %B/B0 (Antibody to Immunogen V; standard curve, RCS-8 1.25 ng/ml): 82%; %B/B0 (Antibody to Immunogen V; standard curve, RCS-8 2.5 ng/ml): 71%; %B/B0 (Antibody to Immunogen V; standard curve, RCS-8 5 ng/ml): 57%; %B/B0 (Antibody to Immunogen V; standard curve, RCS-8 10 ng/ml): 43%; %B/B0 (Antibody to Immunogen V; standard curve, RCS-8 20 ng/ml): 34%; %B/B0 (Antibody to Immunogen V; standard curve, RCS-8 40 ng/ml): 25%; %B/B0 (Antibody to Immunogen V; standard curve, RCS-8 80 ng/ml): 19%
NCCc1c[nH]c2ccc(O)cc12 [Serotonin HCl]	85.91%	98.60%	87.69%	
O=C(c1cccc2ccccc12)c1cn(CCN2CCOCC2)c2ccccc12 [WIN 55,225 (other name JWH-200)]	49.45%	71.03%	88.39%	
COc1ccc(C(=O)c2c(C)n(CCN3CCOCC3)c3ccccc23)cc1 [WIN-48,098 (other name Pravadoline), Pravadoline]	77.87%	23.84%	89.21%	
CS(=O)(=O)O.Cc1c(C(=O)c2cccc3ccccc23)c2cccc3c2n1[C@@H](CN1CCOCC1)CO3 [Win 55,212-3 mesylate]	72.78%	83.98%	87.64%	
(+)-CP 55,940	74.18%	94.76%	92.49%	
(-)-11-nor-9-Carboxy-delta9-THC				%B/B0 (Antibody to Immunogen V): 89.31%; %B/B0 (Antibody to Immunogen VI): 96.32%; %B/B0 [1]: 89.45%
(-)-CP 55,940	91.41%	94.76%	90.16%	
